Experimental data from patent US20130137716A1, “PARENTERAL DEXTROSE FORMULATION OF CLOPIDOGREL” (ACADEMIC PHARMACEUTICALS INCORPORATED, priority 2011, published 2013).

Test: Storage stability of clopidogrel solution at room temperature and at 40°
Type: physicochemical

In the case of COC(=O)[C@H](c1ccccc1Cl)N1CCc2sccc2C1 [clopidogrel], the “ability of solvent to form a stable solution of clopidogrel” value (D5W (5% dextrose in water)) is reported as “not capable of forming a stable solution” and the “ability of solvent to form a stable solution of clopidogrel” value (D50W (50% dextrose in water), room temperature and 40°) is reported as “capable of forming a stable solution”.
